Data on 1 compound can be found in patent US20110190249A1, “THERAPEUTIC METHODS AND USES OF SAPOGENINS AND THEIR DERIVATIVES” (PHYTOPHARM PLC, priority 2002, published 2011).

One test deals with m3 receptor. The test can be described thus: m3 receptor density in CHO-β2/m3 co-transfected cell line. It counts as cell-based. As to conditions: day 5. From the text:
(§1) The effects of epismilagenin cathylate, sarsasapogenin cathylate, episarsasapogenin cathylate, episarsasapogenin succinate, epismilagenin acetate and sarsasapogenin on the expression of muscarinic acetylcholine receptor (m) in CHO cells or β2 and m3 receptors in CHO cells transfected with either a vector for the m receptor or co-transfected with the vector for β2 and m3 receptors were investigated.
(§2) The results are illustrated in Table 1 below and in FIG. 1 of the drawings. Over the culturing period of CHO cells transfected with a vector for the m receptor, treatment with epismilagenin cathylate, sarsasapogenin cathylate, episarsasapogenin cathylate, episarsasapogenin succinate and sarsasapogenin each prevents the decrease in m receptor number.

The subject of another test is β2 adrenoceptor. The test can be described thus: β2 adrenoceptor density in CHO-β2/m3 co-transfected cell line. As to conditions: day 5. It counts as cell-based.
Text: as §1, §2

Each structure is given as a SMILES string.

Regarding `CC(=O)OC1CCC2(C)C(CCC3C2CCC2(C)C3CC3OC4(CCC(C)CO4)C(C)C32)C1` (centres unmarked) [epismilagenin acetate], the “density of m3 receptors” value in the test with m3 receptor is “did not significantly alter”. For the same compound, the “decrease in β2 adrenoceptors (density)” value in the test with β2 adrenoceptor is “significantly prevented the decrease”.
